Measurements reported in publication PMC3718205 (Biochemical and biophysical research communications, 2012).
Where a SMILES comes first, the peptide text is derived from it. The star is where a group is joined. X1 = C/C(=C\C*)CC/C=C(\C)COCc1ccc(C(=O)c2ccccc2)cc1; X3 = C/C(=C\C*)CC/C=C(\C)COCc1cccc(C(=O)c2ccccc2)c1; Biotin = O=C1N[C@H]2[C@H](CS[C@H]2CCCCC(=O)*)N1; X2 = C/C(=C\C*)COCc1cccc(C(=O)c2ccccc2)c1; X4 = C/C(=C\C*)COCc1ccc(C(=O)c2ccccc2)cc1; PEG4 = NCCOCCOCCOCCOCCC(=O)O

Legend:
[1] = tested on: yeast Icmt; conditions: cited from earlier work
[2] = tested on: human Icmt (hIcmt); conditions: cited from earlier work
[3] = target: T1, His10myc3N-Ste14p (His-Ste14p) (Saccharomyces cerevisiae, UniProt P32584); assay: In vitro methyltransferase vapor diffusion assay, substrate kinetics, His-Ste14p; assay type: biochemical, S. cerevisiae; conditions: for Vmax: crude yeast membranes expressing His-Ste14p; for Fold lower Km of para- vs meta-substituted benzophenone a-factor analogs: His-Ste14p, vs meta-substituted analogs (7a, 8a)
T1 sequence (P32584 1-239): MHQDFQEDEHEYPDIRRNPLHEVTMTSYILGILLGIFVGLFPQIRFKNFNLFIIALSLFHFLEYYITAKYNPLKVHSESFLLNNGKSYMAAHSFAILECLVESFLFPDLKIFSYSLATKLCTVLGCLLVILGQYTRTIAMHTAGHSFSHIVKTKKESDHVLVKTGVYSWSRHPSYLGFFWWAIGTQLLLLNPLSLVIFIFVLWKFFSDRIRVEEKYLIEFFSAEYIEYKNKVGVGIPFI

[4] = target: T2, His10myc3N-hIcmt (His-hIcmt) (Homo sapiens, UniProt O60725); conditions: AFC; ± S.D.; cited from earlier work
T2 sequence (O60725 whole entry): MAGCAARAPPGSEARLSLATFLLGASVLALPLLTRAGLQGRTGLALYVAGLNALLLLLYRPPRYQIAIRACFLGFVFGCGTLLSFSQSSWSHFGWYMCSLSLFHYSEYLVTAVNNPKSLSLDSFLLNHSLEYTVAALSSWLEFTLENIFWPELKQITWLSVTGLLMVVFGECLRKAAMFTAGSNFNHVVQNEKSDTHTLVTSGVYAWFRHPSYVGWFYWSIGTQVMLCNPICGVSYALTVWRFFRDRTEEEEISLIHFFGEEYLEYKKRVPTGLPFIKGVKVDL

[5] = target: T1, His10myc3N-Ste14p (His-Ste14p); conditions: read-out: Km(app); AFC positive control; ± S.D.; cited from earlier work
[6] = target: T2, His10myc3N-hIcmt (His-hIcmt); assay: Inhibition of His-hIcmt methyltransferase activity; assay type: biochemical
[7] = tested on: His-Icmt; assay: Competition of photolabeling by 8b with AFC, His-hIcmt; assay type: binding, human; conditions: 8b 200 μM, increasing AFC; data not shown

SMILES	Substrate of yeast Icmt (in words) [1]	Substrate of human Icmt (in words) [2]	Vmax [3]	Inhibition of His-hIcmt (in words) [6]	also measured
CC(=O)N[C@@H](CSC/C=C(\C)CC/C=C(\C)CC/C=C(\C)CCC=C(C)C)C(=O)O [AGGC, N-acetyl-S-geranylgeranyl-L-cysteine]	substrates for both human and yeast Icmts	substrates for both human and yeast Icmts			
CC(=O)N[C@@H](CSC/C=C(\C)CC/C=C(\C)CCC=C(C)C)C(=O)O [Compound 1, N-acetyl-S-farnesyl-L-cysteine]	substrates for both human and yeast Icmts	substrates for both human and yeast Icmts	869 pmol/min/mg		Km [4]: 10.3 ± 0.5 µM; Km [5]: 15.9 ± 0.9 µM
CC[C@H](C)[C@H](NC(=O)[C@H](Cc1ccc(O)cc1)NC(=O)CCOCCOCCOCCOCCNC(=O)CCCC[C@@H]1SC[C@@H]2NC(=O)N[C@@H]21)C(=O)N[C@H](C(=O)N[C@@H](CCCCN)C(=O)NCC(=O)N[C@H](C(=O)N[C@@H](Cc1ccccc1)C(=O)N[C@@H](Cc1c[nH]c2ccccc12)C(=O)N[C@@H](CC(=O)O)C(=O)N1CCC[C@H]1C(=O)N[C@@H](C)C(=O)N[C@@H](CSC/C=C(\C)COCc1cccc(C(=O)c2ccccc2)c1)C(=O)O)C(C)C)[C@@H](C)CC [Compound 7a, Biotin-Peg4-YIIKGVFWDPAC(C5-meta-Bp)] ({Biotin-PEG4}-YIIKGVFWDPAC(X2)-OH)			473 pmol/min/mg	poor inhibitors of His-hIcmt	
CC[C@H](C)[C@H](NC(=O)[C@H](Cc1ccc(O)cc1)NC(=O)CCOCCOCCOCCOCCNC(=O)CCCC[C@@H]1SC[C@@H]2NC(=O)N[C@@H]21)C(=O)N[C@H](C(=O)N[C@@H](CCCCN)C(=O)NCC(=O)N[C@H](C(=O)N[C@@H](Cc1ccccc1)C(=O)N[C@@H](Cc1c[nH]c2ccccc12)C(=O)N[C@@H](CC(=O)O)C(=O)N1CCC[C@H]1C(=O)N[C@@H](C)C(=O)N[C@@H](CSC/C=C(\C)COCc1ccc(C(=O)c2ccccc2)cc1)C(=O)O)C(C)C)[C@@H](C)CC [Compound 7b, Biotin-Peg4-YIIKGVFWDPAC(C5-para-Bp)] ({Biotin-PEG4}-YIIKGVFWDPAC(X4)-OH)				poor inhibitors of His-hIcmt	Fold lower Km of para- vs meta-substituted benzophenone a-factor analogs [3]: 2 – 3 times lower
CC[C@H](C)[C@H](NC(=O)[C@H](Cc1ccc(O)cc1)NC(=O)CCOCCOCCOCCOCCNC(=O)CCCC[C@@H]1SC[C@@H]2NC(=O)N[C@@H]21)C(=O)N[C@H](C(=O)N[C@@H](CCCCN)C(=O)NCC(=O)N[C@H](C(=O)N[C@@H](Cc1ccccc1)C(=O)N[C@@H](Cc1c[nH]c2ccccc12)C(=O)N[C@@H](CC(=O)O)C(=O)N1CCC[C@H]1C(=O)N[C@@H](C)C(=O)N[C@@H](CSC/C=C(\C)CC/C=C(\C)COCc1cccc(C(=O)c2ccccc2)c1)C(=O)O)C(C)C)[C@@H](C)CC [Compound 8a, Biotin-Peg 4-YIIKGVFWDPAC(C10-meta-Bp)] ({Biotin-PEG4}-YIIKGVFWDPAC(X3)-OH)			762 pmol/min/mg	relatively potent	
CC[C@H](C)[C@H](NC(=O)[C@H](Cc1ccc(O)cc1)NC(=O)CCOCCOCCOCCOCCNC(=O)CCCC[C@@H]1SC[C@@H]2NC(=O)N[C@@H]21)C(=O)N[C@H](C(=O)N[C@@H](CCCCN)C(=O)NCC(=O)N[C@H](C(=O)N[C@@H](Cc1ccccc1)C(=O)N[C@@H](Cc1c[nH]c2ccccc12)C(=O)N[C@@H](CC(=O)O)C(=O)N1CCC[C@H]1C(=O)N[C@@H](C)C(=O)N[C@@H](CSC/C=C(\C)CC/C=C(\C)COCc1ccc(C(=O)c2ccccc2)cc1)C(=O)O)C(C)C)[C@@H](C)CC [Compound 8b, Biotin-Peg4-YIIKGVFWDPAC(C10-para-Bp)] ({Biotin-PEG4}-YIIKGVFWDPAC(X1)-OH)				relatively potent	Fold lower Km of para- vs meta-substituted benzophenone a-factor analogs [3]: 2 – 3 times lower; Mode of inhibition (in words) [7]: competitive inhibitor; Photolabeling by 8b in presence of AFC (in words) [7]: decreased with increasing AFC concentration
CC(C)=CCCC(C)=CCCC(C)=CCSCCC(=O)O [FTP, farnesyl thiopropionic acid]	substrates for both human and yeast Icmts	substrates for both human and yeast Icmts			
